Experiment: pH-dependent solubility of telmisartan in aqueous formulation
Assay type: physicochemical
Conditions: concentrations of active substance greater than 1 mg/ml
From the text: The aim of the present invention is to provide a pharmaceutical solution, preferably a drinkable pharmaceutical solution containing an angiotensin-II-receptor antagonist. Preferred angiotensin II receptor antagonists are the substances known by the following INN names: candesartan, eprosartan, irbesartan, losartan, olmesartan, tasosartan, telmisartan and valsartan, and the pharmaceutically acceptable salts, hydrates or polymorphs thereof. The concentration of the angiotensin-II-receptor antagonist, preferably telmisartan, needed in the solution in order to achieve therapeutic doses should be between 1 mg/ml and 10 mg/ml. Moreover, because of the strongly pH-dependent solubility profile of telmisartan an aqueous formulation should have a pH that is either less than 2 or more than 10, in order to ensure a physically stable solution.
The very powerfully astringent effect of such acidic solutions makes acidic formulations of this kind totally unsuitable for long-term use particularly in children but also in domestic pets such as dogs and cats.
It has thus been shown that the stability of a drinkable telmisartan solution is dependent on the amount of reducing sugar contained in the sugar alcohol. The stability of a drinkable telmisartan solution deteriorates as the content of reducing sugars increases. […]

- pH needed for dissolved active substance in acid range: less than 1.5
SMILES: CCCc1nc2c(C)cc(-c3nc4ccccc4n3C)cc2n1Cc1ccc(-c2ccccc2C(=O)O)cc1 [telmisartan, 4′-((2-n-propyl-4-methyl-6-(1-methylbenz-imidazol-2-yl)-benzimidazol-1-yl)methyl)biphenyl-2-carboxylic acid]

Reference: patent US10537523B2, “Oral suspension comprising telmisartan” (Boehringer Ingelheim Vetmedica GmbH, priority 2009, dated 2020)
